The values below come from patent publication US20130029367A1, “COMPOSITIONS AND METHODS FOR MONITORING BREAST CANCER TREATMENT” (Board of Trustees of the University of Arkansas, priority 2003, published 2013).

Each structure is given as a SMILES string.

One data set has as its system 9.29 kDa protein. The data set is described as follows: SELDI-MS of serum proteins in breast cancer patients on radiation therapy and oral glutamine (AES-14). The data set is classed as in vivo, human. The source says: Sixteen breast cancer patients treated with radiation therapy were randomized to receive oral supplemental glutamine (AES-14) or a placebo. Ten of the sixteen women received AES-14 (30 g glutamine per day, approximately 0.5 g glutamine/kg/day) from one week prior to initiating radiation therapy (5,000 cGy) until one week after completing radiation therapy. Six patients received placebo. Serum was collected from each patient before beginning glutamine supplementation (Baseline), at two and four weeks after initiating glutamine supplementation, and one week after stopping glutamine supplementation (Post Treatment in FIG. 1).
Serum proteins from each sample were analyzed by SELDI-MS. Briefly, serum proteins were adhered to the solid substrate of a SELDI chip. The proteins were then desorbed by surface enhanced laser desorption in a SELDI-MS apparatus, and analyzed by mass spectrometry.
SELDI-MS was performed using a Ciphergen (Freemont, Calif.) SELDI PDSII instrument. […] The mass:charge ratio (m/z) of each protein was determined according to a variety of externally calibrated peptide and protein standards. […]
The SELDI-MS procedure analyzed proteins over the m/z ratio ranges of 2-20 and 20-100 kDa.

The subject of data set [1] is radiation injury to normal breast tissue in BCT patients. In words: Phase III pilot study: oral AES-14 vs placebo for radiation injury to the breast in BCT patients. The data set is classed as in vivo, human. To be noted: at 2 year follow-up. The procedure: This theory was tested in two parts. […] A Phase III pilot study in which 17 patients were randomized to oral AES-14 (30 gm GLN/day, approximately 0.5 gm GLN/kg/day) or placebo from one week prior until one week after radiation therapy (5,000 cGy) was performed. Patients were followed weekly for 7 weeks and every 3 months for 2 years for acute and chronic radiation injury using the RTOG scales, skin biopsy at 0 and 7 weeks, GLN and GSH levels, US, mammogram density, lymphedema, quality of life and performance status.
The RTOG acute radiation morbidity scoring criteria for skin ranges from 0 (no change) to 4 (necrosis). A score of 2 (moist desquamation) was considered failure of treatment. Patients receiving oral AES-14 scored an average of 0.9±0.2, SEM compared to 1.4±0.2 in the placebo group. All patients in the placebo group reached a score of 2 or greater during the first 7 weeks. Two of 8 placebo patients required radiation therapy delay. […] Only 4 of 9 patients in the AES-14 group scored a high of 2, none a 3 (p=0.03 AES-14 vs. placebo, Fisher Exact). At 12 months, 4 of 8 patients in the placebo group complained of pain for which 3 required narcotics, 6 of 8 had significant edema, and 4 of 8 marked increased density and firmness of the radiated breast. […]

In data set [2] the test system is human gastrointestinal epithelial cell line (CaCo). In words: Cellular uptake of glutamine in CaCo cells (HPLC detection at 340 nm). The data set is classed as in vitro ADME. The procedure: Distilled, deionized water (107 ml) was added to 207 grams of a dry mixture of sucrose, sorbitol, and glutamine with excipients (Aesgen-14) as listed in Table 1.
Both samples were allowed to stand for 1 day at room temperature. The supernatant was decanted from the residue and used for the cellular uptake determination.
On Day 1, cells from a human gastrointestinal epithelial cell line (CaCo) were plated at a density of 0.5×10^6 cells per well in a 6-well tissue culture dish.
At time points 0, 10, 20, 40, and 60 seconds, the test material was aspirated and the cells washed three times (3×) with chilled (4EC) phosphate buffered saline (PBS), followed by the addition of 1.0 ml of perchloric acid. Cells were harvested by scraping, then aspirated by pipet into a 1.7 ml tube.
The harvested cells were sonicated for 10 seconds, and 500:1 of sonicated cells were transferred into a 1.7 ml tube. The perchloric acid was neutralized by the addition of 130:1 of 2M KHCO3, and the resulting mixture was frozen overnight at −80EC.
Upon thawing, the sample was centrifuged for 10 minutes at 14,000 rpm and the supernatants were transferred to new 1.7 ml tubes and frozen at −80EC. The resulting clarified samples were thawed and diluted 1:3 with deionized water. Fifty microliters were withdrawn, added to 10 microliters complete o-phthaldialdehyde (Sigma P-0532), and mixed by agitation. After incubation for two minutes at room temperature, a 20:1 sample was injected on a Hypersil® C18 Elite 5:m HPLC column using 70:30 acetonitrile:water as the mobile phase. Glutamine levels, measured as :g/ml, were detected at 340 nm.

Turning to `NC(=O)CC[C@H](N)C(=O)O` [L-glutamine], the “increase in amount of the 9.29 kDa protein” value in the data set with 9.29 kDa protein (first two weeks of glutamine supplementation and radiation therapy) is “approximately 3 fold”. Also, the “amount of the 9.29 kDa protein after discontinuation” value in the data set on 9.29 kDa protein (within one week following discontinuation of glutamine) is “returned to near the baseline value”. Moreover, in data set [1], the “patients with local recurrence” value is recorded as “none”. The “mean cellular glutamine uptake” value in data set [2] (normal cells, incubation time 0 seconds) is given as 3.53 :g/ml; in data set [2] (normal cells, incubation time 10 seconds) it was 10.30 :g/ml; in data set [2] (normal cells, incubation time 20 seconds), 2.48 :g/ml; in data set [2] (normal cells, incubation time 40 seconds), 3.23 :g/ml; in data set [2] (normal cells, incubation time 60 seconds), 4.85 :g/ml; in data set [2] (starved cells (L-glutamine deficient medium), incubation time 0 seconds), 1.33 :g/ml. Moreover, the “mean cellular glutamine uptake” value in data set [2] (starved cells (L-glutamine deficient medium), incubation time 10 seconds) was 1.43 :g/ml; in data set [2] (starved cells (L-glutamine deficient medium), incubation time 20 seconds), 1.49 :g/ml; in data set [2] (starved cells (L-glutamine deficient medium), incubation time 40 seconds), 2.23 :g/ml; in data set [2] (starved cells (L-glutamine deficient medium), incubation time 60 seconds) it was 49.96 :g/ml.
